In ChEMBL document CHEMBL4837223, “Anti-angiogenesis Function of Ononin via Suppressing the MEK/Erk Signaling Pathway” (J Nat Prod, 2021):
One block for each molecule: values may come before it. Active and inactive are the calls of the source. The rule behind the calls is not given here.

Key:
HUVEC [1] = experiment: Induction of apoptosis in VEGF-stimulated HUVEC cells assessed as increase in early apoptotic cells at 250 nM measured after 48 hrs by AnnexinV-FITC/PI staining based flow cytometry; format: functional, cell-based; details: Homo sapiens
HUVEC [2] = experiment: Induction of apoptosis in VEGF-stimulated HUVEC cells assessed as increase in late apoptotic cells at 250 nM measured after 48 hrs by AnnexinV-FITC/PI staining based flow cytometry; format: functional, cell-based; details: Homo sapiens
HUVEC [3] = experiment: Induction of apoptosis in VEGF-stimulated HUVEC cells assessed as mitochondrial membrane potential alteration at 250 nM measured after 48 hrs by JC-1 staining based flow cytometry; format: functional, cell-based; details: Homo sapiens
HUVEC [4] = experiment: Induction of apoptosis in VEGF-stimulated HUVEC cells assessed as increase in Bax/Bcl2 ratio at 250 nM measured after 48 hrs by western blot analysis; format: functional, cell-based; details: Homo sapiens
HUVEC [5] = experiment: Induction of apoptosis in VEGF-stimulated HUVEC cells assessed as increase in cleaved caspase-3 protein expression at 250 nM measured after 48 hrs by western blot analysis; format: functional, cell-based; details: Homo sapiens
HUVEC [6] = experiment: Induction of apoptosis in VEGF-stimulated HUVEC cells assessed as increase in cleaved caspase-9 protein expression at 250 nM measured after 48 hrs by western blot analysis; format: functional, cell-based; details: Homo sapiens
HUVEC [7] = experiment: Antiangiogenic activity against VEGF-induced HUVEC cells assessed as reduction in cell migration at 5 uM measured after 48 hrs by Transwell assay; format: functional, cell-based; details: Homo sapiens
HUVEC [8] = experiment: Antiangiogenic activity against VEGF-induced HUVEC cells assessed as reduction in wound healing at 5 uM measured after 48 hrs by scratch-wound healing assay; format: functional, cell-based; details: Homo sapiens
HUVEC [9] = experiment: Antiangiogenic activity against VEGF-stimulated HUVEC cells assessed as reduction in number of sprouting tubules at 5 uM measured after 48 hrs by Matrigel assay based microscopic analysis; format: functional, cell-based; details: Homo sapiens
HUVEC [10] = experiment: Induction of apoptosis in VEGF-stimulated HUVEC cells at 5 uM measured after 48 hrs by AnnexinV-FITC/PI staining based flow cytometry; format: functional, cell-based; details: Homo sapiens
HUVEC [11] = experiment: Induction of apoptosis in VEGF-stimulated HUVEC cells assessed as mitochondrial membrane potential alteration at 5 uM measured after 48 hrs by JC-1 staining based flow cytometry; format: functional, cell-based; details: Homo sapiens
HUVEC [12] = experiment: Induction of apoptosis in VEGF-stimulated HUVEC cells assessed as increase in Cytochrome c protein expression at 5 uM measured after 48 hrs by DAPI staining based confocal microscopy; format: functional, cell-based; details: Homo sapiens
HUVEC [13] = experiment: Induction of apoptosis in VEGF-stimulated HUVEC cells assessed as increase in Bax/Bcl2 ratio at 5 uM measured after 48 hrs by western blot analysis; format: functional, cell-based; details: Homo sapiens
HUVEC [14] = experiment: Induction of apoptosis in VEGF-stimulated HUVEC cells assessed as increase in cleaved caspase-3 protein expression at 5 uM measured after 48 hrs by western blot analysis; format: functional, cell-based; details: Homo sapiens
HUVEC [15] = experiment: Downregulation of HIF-1alpha expression in VEGF-stimulated HUVEC cells at 5 uM measured after 48 hrs by western blot analysis; format: functional, cell-based; details: Homo sapiens
HUVEC [16] = experiment: Inhibition of VEGFR2 expression in VEGF-induced HUVEC cells at 5 uM incubated for 48 hrs by DAPI staining based confocal microscopy; format: functional, cell-based; details: Homo sapiens
HUVEC [17] = experiment: Cytotoxicity against HUVEC cells assessed as reduction in cell vaibility at 5 uM incubated for 48 hrs by MTT assay; format: cell-based; details: human
HUVEC [18] = experiment: Induction of apoptosis in VEGF-stimulated HUVEC cells assessed as increase in cleaved caspase-9 protein expression at 5 uM measured after 48 hrs by western blot analysis; format: functional, cell-based; details: Homo sapiens
HUVEC [19] = experiment: Downregulation of HIF-1alpha expression in VEGF-stimulated HUVEC cells at 5 uM measured after 48 hrs by DAPI staining based confocal microscopy; format: functional, cell-based; details: Homo sapiens
HUVEC [20] = experiment: Effect on HIF-1beta expression in VEGF-stimulated HUVEC cells at 5 uM measured after 48 hrs by western blot analysis; format: functional, cell-based; details: Homo sapiens
[21] = target: Dual specificity mitogen-activated protein kinase kinase; MEK1/2 (Homo sapiens) (UniProt P36507+Q02750); experiment: Inhibition of MEK1/2 in VEGF-stimulated HUVEC cells assessed as reduction in phosphorylated MEK1/2 level at 5 uM incubated for 48 hrs by immunoblot analysis; format: cell-based
[22] = target: Mitogen-activated protein kinase; ERK1/ERK2 (Homo sapiens) (UniProt P27361+P28482); experiment: Inhibition of ERK1/2 in VEGF-stimulated HUVEC cells assessed as reduction in phosphorylated […] at 5 uM incubated for 48 hrs by immunoblot analysis; format: cell-based
Mitogen-activated protein kinase; ERK1/ERK2 (Homo sapiens), sequence (P27361 whole entry, looked up): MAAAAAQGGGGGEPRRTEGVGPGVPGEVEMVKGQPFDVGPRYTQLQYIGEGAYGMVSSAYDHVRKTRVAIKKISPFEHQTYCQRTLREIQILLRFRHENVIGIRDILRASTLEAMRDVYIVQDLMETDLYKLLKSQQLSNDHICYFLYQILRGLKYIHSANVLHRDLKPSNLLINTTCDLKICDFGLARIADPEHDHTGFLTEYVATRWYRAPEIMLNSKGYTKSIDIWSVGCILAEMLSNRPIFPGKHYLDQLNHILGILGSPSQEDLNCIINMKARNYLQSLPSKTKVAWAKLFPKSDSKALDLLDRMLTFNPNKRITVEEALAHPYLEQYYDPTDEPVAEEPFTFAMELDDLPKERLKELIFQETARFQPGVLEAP
Mitogen-activated protein kinase; ERK1/ERK2 (Homo sapiens), sequence (P28482 whole entry, looked up): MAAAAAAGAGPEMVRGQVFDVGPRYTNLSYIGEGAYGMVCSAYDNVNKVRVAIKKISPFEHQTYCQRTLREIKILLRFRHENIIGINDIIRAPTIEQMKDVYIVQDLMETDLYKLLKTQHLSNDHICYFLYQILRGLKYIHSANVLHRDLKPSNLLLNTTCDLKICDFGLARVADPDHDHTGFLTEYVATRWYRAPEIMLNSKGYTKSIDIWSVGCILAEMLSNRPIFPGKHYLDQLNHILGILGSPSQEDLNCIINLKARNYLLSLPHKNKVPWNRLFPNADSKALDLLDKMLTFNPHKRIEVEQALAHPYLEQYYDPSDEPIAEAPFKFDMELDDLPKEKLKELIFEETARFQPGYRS

Dual specificity mitogen-activated protein kinase kinase; MEK1/2 (Homo sapiens), sequence (P36507 whole entry, looked up): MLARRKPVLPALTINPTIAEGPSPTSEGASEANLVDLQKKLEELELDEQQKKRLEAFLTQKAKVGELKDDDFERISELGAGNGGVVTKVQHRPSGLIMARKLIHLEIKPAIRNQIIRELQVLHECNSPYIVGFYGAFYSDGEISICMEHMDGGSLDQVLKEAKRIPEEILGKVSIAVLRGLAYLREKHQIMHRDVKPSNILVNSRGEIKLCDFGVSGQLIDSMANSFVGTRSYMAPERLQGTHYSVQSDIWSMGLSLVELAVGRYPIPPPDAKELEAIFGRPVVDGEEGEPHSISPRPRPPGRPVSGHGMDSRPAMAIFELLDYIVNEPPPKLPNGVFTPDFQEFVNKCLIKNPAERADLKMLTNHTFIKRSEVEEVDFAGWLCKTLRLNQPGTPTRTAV
Dual specificity mitogen-activated protein kinase kinase; MEK1/2 (Homo sapiens), sequence (Q02750 whole entry, looked up): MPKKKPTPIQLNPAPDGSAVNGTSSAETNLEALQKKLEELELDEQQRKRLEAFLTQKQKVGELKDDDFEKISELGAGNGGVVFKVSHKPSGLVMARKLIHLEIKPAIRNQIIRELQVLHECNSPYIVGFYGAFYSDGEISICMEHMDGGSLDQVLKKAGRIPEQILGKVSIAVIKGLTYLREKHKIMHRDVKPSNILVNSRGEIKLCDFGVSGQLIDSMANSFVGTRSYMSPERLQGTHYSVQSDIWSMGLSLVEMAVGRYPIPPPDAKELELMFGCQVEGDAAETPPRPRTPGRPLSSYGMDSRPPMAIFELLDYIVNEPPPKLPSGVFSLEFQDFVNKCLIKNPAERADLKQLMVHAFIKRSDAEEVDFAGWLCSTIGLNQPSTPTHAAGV

Compound: CN[C@@H]1C[C@H]2O[C@@](C)([C@@H]1OC)n1c3ccccc3c3c4c(c5c6ccccc6n2c5c31)C(=O)NC4
- Activity (HUVEC [1]): Active
- Activity (HUVEC [2]): Active
- Activity (HUVEC [3]): Active
- Activity (HUVEC [4]): Active
- Activity (HUVEC [5]): Active
- Activity (HUVEC [6]): Active

- inhibition [21]: Active
- inhibition [22]: Active
Compound: COc1ccc(-c2coc3cc(O[C@@H]4O[C@H](CO)[C@@H](O)[C@H](O)[C@H]4O)ccc3c2=O)cc1 [ONONIN]
- Activity (HUVEC [7]): Active
- Activity (HUVEC [8]): Active
- Activity (HUVEC [9]): Active
- Activity (HUVEC [10]): Active
- Activity (HUVEC [11]): Active
- Activity (HUVEC [12]): Active
- Activity (HUVEC [13]): Active
- Activity (HUVEC [14]): Active
- inhibition (HUVEC [15]): Active
- inhibition (HUVEC [16]): Active
- Activity (HUVEC [17]): Non-Toxic
- Activity (HUVEC [18]): Active
- inhibition (HUVEC [19]): Active
- Activity (HUVEC [20]): inactive
